Assay results as given in patent US20110039763A1, “TARGETED ANTIMICROBIAL MOIETIES” (C3 JIAN, INC., priority 2009, published 2011).
Entries after “also recorded” stand apart in the source; their conditions may differ.

The substances below were run on microorganisms (assay: Targeting peptide binding to target microorganisms (Tables 3, 10, 12)). Conditions: microorganism(s) the targeting peptide binds; binding in aqueous buffers that varied with peptide solubility, preferably 1x PBS.

For “1T-185 (HYHFLLEFGFHKGDYLE; Peptide with targeting and/or antimicrobial activity)”, which “Target(s)” value is on record?
The value was “S. mitis; also recorded: S. mutans; also recorded: S. oralis; also recorded: S. salivarious; also recorded: S. sanguinis”.

How did the “Target(s)” value turn out when “1T-188 (HRKDVYKK; Peptide with targeting and/or antimicrobial activity)” was run?
The value was “S. sanguinis”.

Which “Target(s)” value does the source give for “1T-192 (ILVLLALQVELDSKFQY; Peptide with targeting and/or antimicrobial activity)” here?
The value was “S. sanguinis”.

With “1T-193 (LMIFDKHANLKYKYGNRSFGVEAIM; Peptide with targeting and/or antimicrobial activity)” as the substance, how does the “Target(s)” value read?
Its value is “S. sanguinis”.

For “1T-195 (AASGFTYCASNGVWHPY; Peptide with targeting and/or antimicrobial activity)”, which “Target(s)” value is on record?
Its value is “S. mutans”.

Which “Target(s)” value does the source give for “1T-196 (KPEKEKLDTNTLMKVVNKALSLFDRLLIKFGA; Peptide with targeting and/or antimicrobial activity)” here?
The value was “F. nucleatum; also recorded: S. sanguinis”.

With “1T-198 (MPVSKKRYMLSSAYATALGICYGQVATDEKESEITAIPDLLDYLSVEEYLL; Peptide with targeting and/or antimicrobial activity)” as the substance, how does the “Target(s)” value read?
Its value is “P. gingivalis; also recorded: S. epidermidis; also recorded: S. gordonii; also recorded: S. mitis; also recorded: S. mutans; also recorded: S. oralis; also recorded: S. sanguinis”.

For “1T-199 (RAGRIKKLSQKEAEPFEN; Peptide with targeting and/or antimicrobial activity)”, which “Target(s)” value is on record?
Its value is “S. sanguinis”.

How did the “Target(s)” value turn out when “1T-201 (KRKHENVIVAEEMRVIKN; Peptide with targeting and/or antimicrobial activity)” was run?
Its value is “S. sanguinis”.

With “1T-207 (SPLEKYGTGSMTALTFLLGCCLLVLSKKSR; Peptide with targeting and/or antimicrobial activity)” as the substance, how does the “Target(s)” value read?
The value was “F. nucleatum; also recorded: S. sanguinis”.

How did the “Target(s)” value turn out when “1T-215 (VCFKDISVFLSPFRGQEVLFCGKAKHSLIYVIGT; Peptide with targeting and/or antimicrobial activity)” was run?
Its value is “S. sanguinis”.

For “1T-216 (FFLNVIAIRIPHF; Peptide with targeting and/or antimicrobial activity)”, which “Target(s)” value is on record?
Its value is “S. sanguinis”.

How did the “Target(s)” value turn out when “1T-217 (MLSNVLSRSVVSPNVDIPNSMVILSPLLISISNYH; Peptide with targeting and/or antimicrobial activity)” was run?
The value was “F. nucleatum; also recorded: S. sanguinis”.

With “1T-218 (KLIFAALGLVFLLIGLRDSRSK; Peptide with targeting and/or antimicrobial activity)” as the substance, how does the “Target(s)” value read?
Its value is “F. nucleatum; also recorded: S. sanguinis”.

With “1T-219 (RNINVSATFITEKSLV; Peptide with targeting and/or antimicrobial activity)” as the substance, how does the “Target(s)” value read?
The value was “S. sanguinis”.

For “1T-222 (RIEASLISAIMFSMFNAIVKFLQK; Peptide with targeting and/or antimicrobial activity)”, which “Target(s)” value is on record?
The value was “F. nucleatum; also recorded: S. sanguinis”.

For “1T-237 (EDPVPNHFTLRRNKKEKPSKS; Peptide with targeting and/or antimicrobial activity)”, which “Target(s)” value is on record?
Its value is “S. sanguinis”.

How did the “Target(s)” value turn out when “1T-239 (ADDLLNKRLTDLIMENAETVKTIDLDNSD; Peptide with targeting and/or antimicrobial activity)” was run?
The value was “A. naeslundii; also recorded: S. gordonii; also recorded: S. mitis; also recorded: S. mutans; also recorded: S. oralis; also recorded: S. sanguinis”.

How did the “Target(s)” value turn out when “1T-242 (KQVQNTTLIICGTVLLGILFKSYLKSQKSV; Peptide with targeting and/or antimicrobial activity)” was run?
Its value is “F. nucleatum; also recorded: S. sanguinis”.

How did the “Target(s)” value turn out when “1T-248 (IGGALNSCG; Peptide with targeting and/or antimicrobial activity)” was run?
Its value is “S. sanguinis”.

“1T-249 (VFSVLKHTTWPTRKQSWHDFISILEYSAFFALVIFIFDKLLTLGLAELLKRF; Peptide with targeting and/or antimicrobial activity)” was tested. Which “Target(s)” value did it give?
The value was “F. nucleatum; also recorded: S. sanguinis”.

“1T-250 (LVQGDTILIENHVGTPVKDDGKDCLIIREADVLAVVND; Peptide with targeting and/or antimicrobial activity)” was tested. Which “Target(s)” value did it give?
Its value is “S. mitis; also recorded: S. mutans; also recorded: S. oralis”.

“1T-252 (MKKNLKRFYALVLGFIIGCLFVSILIFIGY; Peptide with targeting and/or antimicrobial activity)” was tested. Which “Target(s)” value did it give?
Its value is “F. nucleatum; also recorded: S. sanguinis”.

Which “Target(s)” value does the source give for “1T-256 (KGKSLMPLLKQINQWGKLYL; Peptide with targeting and/or antimicrobial activity)” here?
The value was “S. sanguinis”.

Which “Target(s)” value does the source give for “1T-258 (TINIDDKVLDYLKKINSKAITIDLIGCAS; Peptide with targeting and/or antimicrobial activity)” here?
Its value is “A. naeslundii; also recorded: F. nucleatum; also recorded: P. gingivalis; also recorded: T. denticola; also recorded: S. mitis; also recorded: S. mutans; also recorded: S. oralis”.

How did the “Target(s)” value turn out when “1T-259 (EKLKKILLKLAVCGKAWYTL; Peptide with targeting and/or antimicrobial activity)” was run?
The value was “F. nucleatum; also recorded: P. gingivalis; also recorded: T. denticola; also recorded: S. mitis; also recorded: S. mutans; also recorded: S. oralis; also recorded: S. sanguinis”.

“1T-260 (NILYFIHDENQWEPQKAEIFRGSIKHCAWLSS; Peptide with targeting and/or antimicrobial activity)” was tested. Which “Target(s)” value did it give?
The value was “A. naeslundii; also recorded: P. gingivalis; also recorded: S. epidermidis; also recorded: S. gordonii; also recorded: S. mitis; also recorded: S. mutans; also recorded: S. oralis; also recorded: S. sanguinis”.

With “1T-261 (SFEKNKIENNLKIAQAYIYIKPKPRICQA; Peptide with targeting and/or antimicrobial activity)” as the substance, how does the “Target(s)” value read?
The value was “F. nucleatum; also recorded: S. mutans; also recorded: S. oralis; also recorded: S. sanguinis”.

With “1T-264 (LEGKFYMAEDFDKTPECFKDYV; Peptide with targeting and/or antimicrobial activity)” as the substance, how does the “Target(s)” value read?
The value was “S. sanguinis”.

“1T-266 (RAGTWLVVDEIR; Peptide with targeting and/or antimicrobial activity)” was tested. Which “Target(s)” value did it give?
Its value is “S. sanguinis”.

“1T-267 (RIKEERKNRSYKFFIWRLFDEKTGFI; Peptide with targeting and/or antimicrobial activity)” was tested. Which “Target(s)” value did it give?
The value was “A. naeslundii; also recorded: F. nucleatum; also recorded: P. gingivalis; also recorded: T. denticola; also recorded: S. mitis; also recorded: S. mutans; also recorded: S. oralis; also recorded: S. sanguinis”.

Same assay, conditions: peptide binding in aqueous buffers that varied with peptide solubility; preferably 1x PBS

For “1T-159 (IFSLHHFALICSEMGTFAVSKRAKYKWEVL; Peptide with targeting and/or antimicrobial activity)”, which “Target(s) (microorganism bound by the targeting peptide)” value is on record?
The value was “P. gingivalis”.

Which “Target(s) (microorganism bound by the targeting peptide)” value does the source give for “1T-170 (AYGKVFSMDIMLSENDKLIVLRISHHSAWH; Peptide with targeting and/or antimicrobial activity)” here?
The value was “P. gingivalis”.

Which “Target(s) (microorganism bound by the targeting peptide)” value does the source give for “1T-177 (GTNVPTQILGYSREERFDYEPAPEQR; Peptide with targeting and/or antimicrobial activity)” here?
The value was “P. gingivalis; also recorded: S. gordonii; also recorded: S. mitis; also recorded: S. mutans; also recorded: S. oralis; also recorded: S. salivarious; also recorded: S. sanguinis”.

For “1T-185 (HYHFLLEFGFHKGDYLE; Peptide with targeting and/or antimicrobial activity)”, which “Target(s) (microorganism bound by the targeting peptide)” value is on record?
Its value is “A. naeslundii; also recorded: F. nucleatum; also recorded: P. gingivalis; also recorded: T. denticola; also recorded: S. gordonii”.
